Biological target: T1, TXK (Homo sapiens, UniProt P42681)
T1 sequence (P42681 1-527): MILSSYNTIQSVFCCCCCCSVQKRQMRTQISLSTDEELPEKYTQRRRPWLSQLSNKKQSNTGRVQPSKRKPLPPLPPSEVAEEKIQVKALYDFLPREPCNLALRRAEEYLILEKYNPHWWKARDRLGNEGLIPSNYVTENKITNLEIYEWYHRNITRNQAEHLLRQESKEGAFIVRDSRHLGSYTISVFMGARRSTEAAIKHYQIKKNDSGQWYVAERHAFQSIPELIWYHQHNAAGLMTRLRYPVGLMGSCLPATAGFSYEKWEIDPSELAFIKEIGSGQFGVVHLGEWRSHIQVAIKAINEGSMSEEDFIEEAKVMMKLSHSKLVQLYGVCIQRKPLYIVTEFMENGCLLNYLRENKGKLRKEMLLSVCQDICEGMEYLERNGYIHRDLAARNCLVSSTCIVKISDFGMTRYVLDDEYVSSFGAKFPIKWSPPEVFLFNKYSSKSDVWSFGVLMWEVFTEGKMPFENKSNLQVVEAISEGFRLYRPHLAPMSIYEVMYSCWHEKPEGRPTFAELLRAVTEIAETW
Test: biochemical

Kd: > 10 µM
SMILES: COc1cc(N(C)c2ccnc3ccc(C(F)(F)F)cc23)cc(OC)c1OC [compound 21, negative control (21)]
